Measured values from PubChem BioAssay (NCI).
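Grown in 96-well plates, cells were treated for 48 hours with each compound at five concentrations. Insufficient inhibition: endpoint recorded as highest concentration tested. Here, GI50 denotes the concentration required for 50% inhibition of growth. TGI is the concentration that stops growth completely.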

Assays:
Assay in all cases: NCI tumour cell line growth inhibition, 48 h
[1] = test system: HCT-15 colon
[2] = test system: UO-31 renal
[3] = test system: HOP-62 NSCLC
[4] = test system: NCI-H23 lung
[5] = test system: OVCAR-5 ovarian
[6] = test system: OVCAR-3 ovarian
[7] = test system: SN12C renal
[8] = test system: HT29 colon
[9] = test system: DU-145 prostate
[10] = test system: SF-539 CNS
[11] = test system: RPMI-8226 leukemia
[12] = test system: EKVX NSCLC
[13] = test system: SNB-19 CNS
[14] = test system: SK-MEL-2 melanoma
[15] = test system: HL-60(TB) leukemia
[16] = test system: HOP-92 NSCLC
[17] = test system: IGROV1 ovarian
[18] = test system: SK-OV-3 ovarian
[19] = test system: PC-3 prostate
[20] = test system: RXF 393 renal
[21] = test system: MDA-MB-231 breast
[22] = test system: SK-MEL-28 melanoma
[23] = test system: MOLT-4 leukemia
[24] = test system: OVCAR-8 ovarian
[25] = test system: SW-620 colon
[26] = test system: MALME-3M melanoma
[27] = test system: COLO 205 colon
[28] = test system: U251 CNS
[29] = test system: M14 melanoma
[30] = test system: UACC-257 melanoma
[31] = test system: A498 renal
[32] = test system: UACC-62 melanoma
[33] = test system: OVCAR-4 ovarian
[34] = test system: NCI-H460 lung
[35] = test system: SF-295 CNS
[36] = test system: ACHN renal
[37] = test system: CAKI-1 renal
[38] = test system: NCI-H226 lung
[39] = test system: MDA-MB-435
[40] = test system: HCT-116 colon
[41] = test system: SNB-75 CNS
[42] = test system: SK-MEL-5 melanoma
[43] = test system: SR leukemia
[44] = test system: SF-268 CNS
[45] = test system: LOX IMVI melanoma
[46] = test system: TK-10 renal
[47] = test system: MCF7 breast
[48] = test system: 786-0 renal
[49] = test system: HCC-2998 colon
[50] = test system: NCI/ADR-RES ovarian
[51] = test system: CCRF-CEM leukemia
[52] = test system: A549 NSCLC
[53] = test system: K-562 leukemia
[54] = test system: NCI-H522 lung
[55] = test system: BT-549 breast
[56] = test system: T-47D breast
[57] = test system: HS 578T breast
[58] = test system: KM12 colon
[59] = test system: MDA-N

CCOC(=O)/C(C1=CC(=O)C(=O)c2ccccc21)=C(/C)NCc1ccccc1
GI50 [1]: 1.75 µM | TGI [1]: 3.6 µM | GI50 [2]: 3.35 µM | TGI [2]: > 100 µM | GI50 [3]: 1.56 µM | TGI [3]: 3.44 µM | GI50 [4]: 1.85 µM | TGI [4]: 3.71 µM | GI50 [5]: 2.43 µM | TGI [5]: 6.69 µM | GI50 [6]: 0.218 µM | TGI [6]: 0.935 µM | GI50 [7]: 2.12 µM | TGI [7]: 5.09 µM | GI50 [8]: 4.36 µM | TGI [8]: > 100 µM | GI50 [9]: 1.79 µM | TGI [9]: 3.32 µM | GI50 [10]: 1.06 µM | TGI [10]: 2.65 µM | GI50 [11]: 0.184 µM | TGI [11]: 0.432 µM | GI50 [12]: 2.33 µM | TGI [12]: 5.06 µM | GI50 [13]: 3.24 µM | TGI [13]: > 100 µM | GI50 [14]: 5.87 µM | TGI [14]: > 100 µM | GI50 [15]: 0.453 µM | TGI [15]: 2.25 µM | GI50 [16]: 1.4 µM | TGI [16]: 3.52 µM | GI50 [17]: 1.05 µM | GI50 [18]: 2.17 µM | TGI [18]: 4.88 µM | GI50 [19]: 1.23 µM | TGI [19]: 2.48 µM | GI50 [20]: 0.186 µM | TGI [20]: 1.73 µM | GI50 [21]: 1.37 µM | TGI [21]: 3.28 µM | GI50 [22]: 3.02 µM | TGI [22]: 7.32 µM | GI50 [23]: 0.182 µM | TGI [23]: 0.434 µM | GI50 [24]: 3.69 µM | TGI [24]: 9.5 µM | GI50 [25]: 1.64 µM | TGI [25]: 3.3 µM | GI50 [26]: 1.66 µM | TGI [26]: 3.57 µM | GI50 [27]: 2.01 µM | TGI [27]: 4.54 µM | GI50 [28]: 0.606 µM | GI50 [29]: 1.71 µM | TGI [29]: 3.17 µM | GI50 [30]: 2.56 µM | TGI [30]: 10.9 µM | GI50 [31]: 4.77 µM | TGI [31]: 10.4 µM | GI50 [32]: 2.02 µM | TGI [32]: 3.91 µM | GI50 [33]: 3.12 µM | TGI [33]: 56.7 µM | GI50 [34]: 3.23 µM | TGI [34]: 12 µM | GI50 [35]: 1.76 µM | TGI [35]: 3.68 µM | GI50 [36]: 2.28 µM | TGI [36]: 4.75 µM | GI50 [37]: 1.61 µM | TGI [37]: 3.58 µM | GI50 [38]: 2.62 µM | TGI [38]: 6.38 µM | GI50 [39]: 0.226 µM | TGI [39]: 0.476 µM | GI50 [40]: 1.52 µM | TGI [40]: 2.85 µM | GI50 [41]: 3.11 µM | TGI [41]: 55.5 µM | GI50 [42]: 1.78 µM | TGI [42]: 3.38 µM | GI50 [43]: 0.127 µM | TGI [43]: 0.274 µM | GI50 [44]: 1.64 µM | TGI [44]: 3.43 µM | GI50 [45]: 1.15 µM | TGI [45]: 2.36 µM | GI50 [46]: 1.72 µM | TGI [46]: 3.51 µM | GI50 [47]: 2.05 µM | TGI [47]: 4.75 µM | GI50 [48]: 1.29 µM | TGI [48]: 2.88 µM | GI50 [49]: 2.85 µM | TGI [49]: 8.2 µM | GI50 [50]: 2.02 µM | TGI [50]: 5.08 µM | GI50 [51]: 0.0144 µM | TGI [51]: 0.0649 µM | GI50 [52]: 2.4 µM | TGI [52]: 6.42 µM | GI50 [53]: 1.3 µM | TGI [53]: 3.24 µM | GI50 [54]: 1.22 µM | GI50 [55]: 3.29 µM | TGI [55]: 6.18 µM | GI50 [56]: 2.27 µM | TGI [56]: > 100 µM | GI50 [57]: 2.54 µM | TGI [57]: 6.96 µM

C/C(=C\CCC1=CC(=O)OC1)CC[C@@H]1[C@H]2C(=O)CC(C)[C@@]3(C)CC[C@]1(C)[C@@]23C (some centres not stated)
TGI [1]: > 10 µM | TGI [3]: > 10 µM | TGI [4]: > 10 µM | TGI [7]: > 10 µM | TGI [8]: > 10 µM | TGI [9]: > 10 µM | TGI [11]: > 10 µM | TGI [12]: > 10 µM | TGI [15]: > 10 µM | TGI [17]: > 10 µM | TGI [18]: > 10 µM | TGI [19]: > 10 µM | TGI [20]: > 10 µM | TGI [21]: > 10 µM | TGI [22]: > 10 µM | TGI [23]: > 10 µM | TGI [24]: > 10 µM | TGI [25]: > 10 µM | TGI [26]: > 10 µM | TGI [27]: > 10 µM | TGI [58]: > 10 µM | TGI [29]: > 10 µM | TGI [30]: > 10 µM | TGI [32]: > 10 µM | TGI [59]: > 10 µM | TGI [35]: > 10 µM | TGI [37]: > 10 µM | TGI [41]: > 10 µM | TGI [42]: > 10 µM | TGI [43]: > 10 µM | TGI [44]: > 10 µM | TGI [45]: > 10 µM | TGI [46]: > 10 µM | TGI [47]: > 10 µM | TGI [48]: > 10 µM | TGI [49]: > 10 µM | TGI [51]: > 10 µM | TGI [52]: > 10 µM | TGI [53]: > 10 µM | TGI [56]: > 10 µM

CCCCCCCCOCC1S(=O)(=O)OCCOS1(=O)=O
TGI [1]: > 100 µM | TGI [2]: > 100 µM | TGI [3]: > 100 µM | TGI [4]: > 100 µM | TGI [5]: > 100 µM | TGI [6]: > 100 µM | TGI [7]: > 100 µM | TGI [8]: > 100 µM | TGI [9]: > 100 µM | TGI [10]: > 100 µM | TGI [11]: > 100 µM | TGI [12]: > 100 µM | TGI [13]: > 100 µM | TGI [14]: > 100 µM | TGI [15]: > 100 µM | TGI [16]: > 100 µM | TGI [17]: > 100 µM | TGI [18]: > 100 µM | TGI [19]: > 100 µM | TGI [20]: > 100 µM | TGI [21]: > 100 µM | TGI [22]: > 100 µM | TGI [23]: > 100 µM | TGI [24]: > 100 µM | TGI [25]: > 100 µM | TGI [26]: > 100 µM | TGI [27]: > 100 µM | TGI [28]: > 100 µM | TGI [29]: > 100 µM | TGI [30]: > 100 µM | TGI [31]: > 100 µM | TGI [32]: > 100 µM | TGI [59]: > 100 µM | TGI [33]: > 100 µM | TGI [34]: > 100 µM | TGI [35]: > 100 µM | TGI [36]: > 100 µM | TGI [37]: > 100 µM | TGI [38]: > 100 µM | TGI [39]: > 100 µM | TGI [40]: > 100 µM | TGI [41]: > 100 µM | TGI [42]: > 100 µM | TGI [43]: > 100 µM | TGI [44]: > 100 µM | TGI [45]: > 100 µM | TGI [46]: > 100 µM | TGI [48]: > 100 µM | TGI [49]: > 100 µM | TGI [50]: > 100 µM | TGI [51]: > 100 µM | TGI [52]: > 100 µM | TGI [53]: > 100 µM | TGI [54]: > 100 µM | TGI [56]: > 100 µM | TGI [57]: > 100 µM
